Experimental findings from US12161637B2, “Anti-cancer gold complex, process of synthesis and method of treatment thereof” (King Saud University, priority 2022, dated 2024) are described below.

Holding throughout (format): cell-based
In data set [1] the test system is MCF-7 breast cancer cell line. The data set is described as follows: Apoptosis analysis, Muse Annexin V Live & Dead Cell Kit, flow cytometry. Conditions: 24 h, versus control.
Description: MCF-7 cells were seeded in 6 well plates at 1.5×10^4 cells per well. […] DMSO was used as a negative control. The final DMSO concentration in each well was less than 0.1%. The harvested cells were stained with Annexin V-FITC and Dead Cell reagent following the manufacture's protocol. Then, the percentage of apoptotic cells was estimated by flow cytometry.
For data set [2], the system named is MCF-7 cells. The data set can be described thus: Mitochondrial membrane potential analysis, Muse MitoPotential Kit, flow cytometry. As to conditions: for percentage of depolarized cancer cells (mitochondrial membrane potential): 24 h. On the procedure: Mitochondrial membrane potential is an important parameter to assess the integrity of mitochondria, which is a potential target in cancer therapeutics. The loss of mitochondrial membrane potential has been known to be associated with early stages of apoptosis and reactive oxygen species (ROS) induction. To assess the mitochondrial membrane potential, Muse® MitoPotential Kit (Luminex, IL, USA) was used. MCF-7 cells were seeded in a 6 well plate at 1.5×10^4 cells/well. […] DMSO was used as a negative control. The final DMSO concentration in each well was less than 0.1%. Then, cells were stained with MitoPotential reagents following the manufacture's protocol. The percentage of depolarized/live cells was estimated by flow cytometry.
(In general: In flow cytometry, cells or beads pass a laser one at a time.)

Data set [3] concerns MCF-7 breast cancer cells. The data set is described as follows: Cell viability by MTT assay. Conditions: read-out: IC50, cell viability (cytotoxicity). The text has this:
Materials and methods: All organic ligands were purchased from Sigma-Aldrich and gold salts from Strom Chemicals USA. Breast cancer cell lines MCF-7 were obtained from American Type Culture Collection, ATCC (Virginia, USA). Dulbecco's Modified Eagle's Medium (DMEM), Fetal Bovine Serum (FBS), and 0.25% Trypsin 0.1% EDTA were obtained from Gibco (Grand Island, NY). The 3-(4,5-dimethylthiazol-2-yl)-2,5-diphenyltetrazolium bromide (MTT) and DMSO were purchased from Sigma-Aldrich (St. Louis, MO).
Cell viability was determined by 3-(4,5-dimethylthiazol-2-yl)-2,5-diphenyltetrazolium bromide (MTT) assay. Breast cancer cells, MCF-7, were seeded in a 96-well tissue culture plate at 10,000 cells/well in 200 μl of DMEM. […] Then, 20 μl of MTT (5 mg/mL) was added to the each well and incubated in a CO2 incubator at 37° C. in the dark for 3 h. After incubation, a purple-colored formazan dye is produced and appeared as dark crystals in the bottom of the wells. To dissolve the formazan crystals, the culture medium was discarded and 100 μL of isopropanol were added to each well. The absorbance was recorded at 570 nm against reagent blank. The cell viability was calculated by the formula below: Cell viability (%)=[Absorbance Compound/Absorbance DMSO]*100
(Tetrazolium dyes change colour on reduction, which living cells bring about.)

Data set [4] has as its system MCF-7 cells. The data set can be described thus: Oxidative stress analysis (ROS generation), Muse Oxidative Stress Kit, flow cytometry. As to conditions: 24 h. The procedure: The induction of oxidative stress via ROS generation endogenously in cancer cells is a potential target of anticancer agents. Oxidative stress causes irreversible cellular damage which induces apoptosis in concentration-dependent manner. MCF-7 cells were plated at 1.5×10^4 cells/well using a 6 well plate to estimate the generation of reactive oxygen species (ROS). […] DMSO was used as a negative control. The final DMSO concentration in each well was less than 0.1%. Then, the cells were harvested and stained with Muse® Oxidative Stress Kit (Luminex, IL, USA) following the manufacture's protocol. The percentage of cells that were undergoing oxidative stress was measured by flow cytometry.

The mark [5] stands for this setting: MCF-7, higher concentration (5 μM).
[6] abbreviates: MCF-7, lower concentration (1 μM).

Molecules are shown by their SMILES. Where two headings read alike, the source gives them in different places.

As usually defined, the IC50 is the concentration needed to halve the response being measured. As for `O=Cc1ccnc(-c2cc(C=O)ccn2)c1.S=C([S][Au+2])N(Cc1ccccc1)Cc1ccccc1` [DDBDG, dibenzyldithiocarbamato-2,2′-bipyridine-4,4′-dicarboxaldehyde gold (III)], the “induction of apoptosis (early and late combined)” value is 2.2 folds in data set [1] (MCF-7, 1 μM); 4.4 folds in data set [1] (MCF-7, 3 μM); 5.5 folds in data set [1] (MCF-7, 10 μM). Also, in the data set on MCF-7 cells [2] (MCF-7, 24 h), the “mitochondrial membrane potential depolarization compared to positive control Sorafenib” value is listed as “roughly three-folds higher”. Also, the “percentage of depolarized cancer cells (mitochondrial membrane potential)” value in the data set on MCF-7 cells [2] (setting [5]) amounted to 27.8%; in the data set with MCF-7 cells [2] (setting [6]), 27.0%. Moreover, in data set [3] (MCF-7, 24 h treatment), the IC50 was 0.875 µM. In addition, the ROS generation in the data set on MCF-7 cells [4] (MCF-7, 1 μM) is 125.53%; in the data set with MCF-7 cells [4] (MCF-7, 5 μM), 103.47%.

Regarding `CNC(=O)c1cc(Oc2ccc(NC(=O)Nc3ccc(Cl)c(C(F)(F)F)c3)cc2)ccn1` [Sorafenib, reference compound], the “percentage of depolarized cancer cells (mitochondrial membrane potential)” value with MCF-7 cells [2] (setting [5]) came to 12.0%; in the data set with MCF-7 cells [2] (setting [6]) it was 2.7%. Moreover, the IC50 in data set [3] (Homo sapiens, MCF7, MCF-7, 24 h treatment) was found to be 4.45 µM. For the same molecule, the ROS generation with MCF-7 cells [4] (MCF-7, 1 μM) is 73.76%; in the data set with MCF-7 cells [4] (MCF-7, 5 μM), 122.11%.
